Data on 27 molecules can be found in ChEMBL document CHEMBL1240412, “Synthesis and structure activity relationship studies of novel Staphylococcus aureus Sortase A inhibitors” (Eur J Med Chem, 2010).

The nature of this test: Inhibition of Staphylococcus aureus Sortase Adelta59 by FRET assay.
By IC50 is commonly meant the concentration that inhibits the measured activity by half. Read a high IC50 as weaker potency in that assay. For `O=C(CCc1ccco1)Nc1ccc(N2CCOCC2)c(C(=O)O)c1`, the IC50 is greater than 600 µM.
In turn, `COC(=O)c1cc(N(C)C(=O)/C=C/c2ccco2)ccc1N1CCOCC1` displayed an IC50 of 514 µM.
For `COC(=O)c1cc(NC(=O)/C=C/c2cccs2)ccc1N1CCCCC1` the value was 92 µM; for `O=C(CCc1cccs1)Nc1ccc(N2CCOCC2)c(C(=O)O)c1`, greater than 600 µM; for `O=C(/C=C/c1ccco1)Nc1ccc(N2CCOCC2)c(C(=O)O)c1`, 181 µM.
For `O=Cc1cc(NC(=O)/C=C/c2cccs2)ccc1N1CCOCC1` the value was 77 µM.
Molecule `COC(=O)c1cc(NC/C=C/c2cccs2)ccc1N1CCOCC1` returned an IC50 of 249 µM.
`COC(=O)c1cc(N(C)C(=O)/C=C/c2cccs2)ccc1N1CCOCC1`: half-maximal inhibition (IC50) required 571 µM.
In the case of `COC(=O)c1cc(NC(=O)/C=C/c2cccs2)ccc1N1CCOCC1`, the IC50 came to 71 µM.
For the molecule `COC(=O)c1cc(NC(=O)CCc2cccs2)ccc1N1CCOCC1`, the IC50 was greater than 600 µM.
For `O=C(/C=C\c1cccs1)Nc1ccc(N2CCOCC2)c(C(=O)O)c1` the value was 154 µM; for `O=C(/C=C/c1cccs1)Nc1ccc(N2CCOCC2)c(CO)c1`, 73 µM; for `COC(=O)c1cc(NC(=O)/C=C\c2cccs2)ccc1N1CCOCC1`, 61 µM.
As for `CN(C(=O)/C=C/c1cccs1)c1ccc(N2CCOCC2)c(C(=O)O)c1`, the IC50 was greater than 600 µM.
To `COC(=O)c1cc(NC(=O)CCc2ccco2)ccc1N1CCOCC1` belongs greater than 600 µM; to `O=C(C#Cc1cccs1)Nc1ccc(N2CCOCC2)c(C(=O)O)c1`, 183 µM.
To `NC(=O)c1cc(NC(=O)/C=C/c2cccs2)ccc1N1CCOCC1` belongs 105 µM; to `COC(=O)c1cc(NC(=O)C#Cc2cccs2)ccc1N1CCOCC1`, 165 µM; to `CN(C(=O)/C=C/c1ccco1)c1ccc(N2CCOCC2)c(C(=O)O)c1`, greater than 600 µM.
With `O=C(/C=C/c1ccco1)Nc1ccc(N2CCCCC2)c(C(=O)O)c1`, the midpoint of inhibition, the IC50, lay at 463 µM.
On to `O=C(/C=C/c1cccs1)Nc1ccc(N2CCCCC2)c(C(=O)O)c1`, for which the IC50 came out at 181 µM.
In turn, `O=C(O)c1cc(NC/C=C/c2cccs2)ccc1N1CCOCC1` displayed an IC50 greater than 600 µM.
`COC(=O)c1cc(NC(=O)/C=C/c2ccco2)ccc1N1CCCCC1` came in with an IC50 of 131 µM.
For `COC(=O)c1cc(NC(=O)/C=C/c2ccco2)ccc1N1CCOCC1` the value was 58 µM; for `O=C(/C=C/c1cccs1)Nc1ccc(N2CCOCC2)c(C(=O)O)c1`, 75 µM.
Take `O=Cc1cc(NC(=O)/C=C/c2ccco2)ccc1N1CCOCC1`: the IC50 was found to be 107 µM.
To `O=C(/C=C/c1ccco1)Nc1ccc(N2CCOCC2)c(CO)c1` belongs 111 µM.
